Patent publication US8883745B2, “C—glycolipids with enhanced Th-1 profile” (New York University, priority 2006, dated 2014)

Legend:
Type in all cases: in vivo
IL-4 = IL-4 levels in sera upon i.v. glycolipid administration to BALB/c mice (ELISA); set-up: unit not given here; settings: for IL-4 level, Total: total over hours 0-72
Experimental: (§1) Five- to six-week-old female C57BL/6 mice and BALB/c mice were purchased from Taconic. Each glycolipid was stored at 1 mg/ml in 100% DMSO. Mice were injected intravenously with 1 μg of each glyocolipid diluted in 200 μL sterile phosphate buffered saline (PBS). At indicated time points, sera were collected from each animal, and concentrations of IFN-γ, IL-4, and IL-12 in the sera were evaluated by enzyme-linked immunosorbent assay (ELISA). Serum concentrations of IFN-γ, IL-4, and IL-12 were evaluated using an ELISA kit (eBioscience, San Diego, Calif.). Briefly, 96 well flat-bottom ELISA plates (NUNC) were coated with capture antibody according to the manufacture's recommendation and incubated overnight at 4° C. The plates were washed with PBS+0.05% Tween 20 (PBS-T), then incubated with manufacturer provided blocking solution for 1 hr at room temperature to block non-specific binding sites. After washing with PBS-T, sera diluted 1:10 was added to the wells and incubated for 2 hrs at room temperature. Plates were then incubated at room temperature for 1 hr with biotintylated detection antibody, washed, incubated with avidin conjugated to horse radish peroxidase (HRP) for 30 min at room temperature, washed, and finally incubated with tetramethylbenzidine substrate solution in the dark for 10 minutes at room temperature. The antibodies, avidin-HRP, and substrate solution were all diluted according to the manufacture's recommendation. Reactions were stopped with 2.0N sulfuric acid and the cytokine concentration in each well was determined by comparing the absorbance at 450 nm in each well to known standards. The levels of Th1- and Th2-type cytokines were determined in two different genetic backgrounds, i.e., in C57BL/6 mice and BALB/c mice. The following compounds were administered: A=compound (A-1 trans-conformer), B=compound (A-2), C=compound (A-3), D=compound (A-4), E=compound (A-5), Z=control (PBS alone), CRONY=α-C-GalCer, KRN=α-GalCer, GCK109 (A-1 trans-conformer), GCK151 (A-1 cis-conformer), GCK152 (A-7). The levels of cytokines were measured at 0, 2, 6, 12, 24, 48, and 72 hours after the compound administration. The levels of Th1-type cytokines IFN-γ and IL-12 are summarized in FIGS. 2A-C and 3A-C, respectively. Table 7 provides IFN-γ/IL-4 and IL-12/IL-4 ratios for various compounds, which can be used as indicators of their ability to selectively stimulate Th1-type immune responses.

IFN-γ = IFN-γ levels in sera upon i.v. glycolipid administration to BALB/c mice (ELISA); set-up: IFN-γ levels, test 1 / IFN-γ levels, test 2 / IFN-γ levels, average / IFN-γ levels, Total: unit not given here; settings: for IFN-γ/IL-4 (BALB/c): ratio calculated from Tables 1-6; for IFN-γ/IL-4 (BALB/c) / IFN-γ levels, average / IFN-γ levels, test 1 / IFN-γ levels, test 2 / IFN-γ levels, Total: BALB/c; for IFN-γ levels, average / IFN-γ levels, test 1 / IFN-γ levels, test 2 / IFN-γ levels, Total: serum; for IFN-γ levels, Total: total over hours 0-72
Experimental: as §1

IL-12 [1] = experiment: IL-12 levels in sera upon i.v. glycolipid administration to C57BL/6 mice (ELISA); set-up: IL-12 levels, test 1 / IL-12 levels, test 2 / IL-12 levels, average / IL-12 levels, Total: unit not given here; settings: for IL-12/IL-4 (B6): C57BL/6, ratio calculated from Tables 1-6; for IL-12 levels, average / IL-12 levels, test 1 / IL-12 levels, test 2 / IL-12 levels, Total: C57BL/6, serum; for IL-12 levels, Total: total over hours 0-72
Experimental: as §1

IL-12 [2] = experiment: IL-12 levels in sera upon i.v. glycolipid administration to BALB/c mice (ELISA); set-up: IL-12 levels, test 1 / IL-12 levels, test 2 / IL-12 levels, average / IL-12 levels, Total: unit not given here; settings: for IL-12/IL-4 (BALB/c): ratio calculated from Tables 1-6; for IL-12 levels, average / IL-12 levels, test 1 / IL-12 levels, test 2 / IL-12 levels, Total: serum; for IL-12 levels, Total: total over hours 0-72
Experimental: as §1

## CCCCCCCCCCCCCCCCCC/C=C/CCCCCCCCC(=O)N[C@@H](/C=C/[C@H]1O[C@H](CO)[C@H](O)[C@H](O)[C@H]1O)[C@H](O)[C@H](O)CCCCCCCCCCCCCC [A-1]
IL-4; hour 0
  IL-4 level, average: 27
  IL-4 level, test 1: 27
  IL-4 level, test 2: 27
IL-4; hour 2
  IL-4 level, average: 431.5
  IL-4 level, test 1: 358
  IL-4 level, test 2: 505
IL-4; hour 6
  IL-4 level, average: 95.5
  IL-4 level, test 1: 85
  IL-4 level, test 2: 106
IL-4; hour 12
  IL-4 level, average: 51
  IL-4 level, test 1: 52
  IL-4 level, test 2: 50
IL-4; hour 24
  IL-4 level, average: 41.5
  IL-4 level, test 1: 40
  IL-4 level, test 2: 43
IL-4; hour 48
  IL-4 level, average: 44
  IL-4 level, test 1: 46
  IL-4 level, test 2: 42
IL-4; hour 72
  IL-4 level, average: 4
  IL-4 level, test 1: 4
  IL-4 level, test 2: 4
IL-4
  IL-4 level, Total: 696
IFN-γ
  IFN-γ/IL-4 (BALB/c): 37
  IFN-γ levels, Total: 25633
IFN-γ; hour 0
  IFN-γ levels, average: 27
  IFN-γ levels, test 1: 27
  IFN-γ levels, test 2: 27
IFN-γ; hour 2
  IFN-γ levels, average: 303
  IFN-γ levels, test 1: 373
  IFN-γ levels, test 2: 233
IFN-γ; hour 6
  IFN-γ levels, average: 3990.5
  IFN-γ levels, test 1: 2814
  IFN-γ levels, test 2: 5167
IFN-γ; hour 12
  IFN-γ levels, average: 5514
  IFN-γ levels, test 1: 4881
  IFN-γ levels, test 2: 6147
IFN-γ; hour 24
  IFN-γ levels, average: 15250
  IFN-γ levels, test 1: 16100
  IFN-γ levels, test 2: 14400
IFN-γ; hour 48
  IFN-γ levels, average: 484.5
  IFN-γ levels, test 1: 441
  IFN-γ levels, test 2: 528
IFN-γ; hour 72
  IFN-γ levels, average: 62.5
  IFN-γ levels, test 1: 62
  IFN-γ levels, test 2: 63
IFN-γ; C57BL/6 and BALB/c mice, 1 μg i.v.
  effect: higher/extended IFN-γ and IL-12 with much lower IL-4 compared to α-GalCer (KRN): particularly pronounced
IL-12 [1]
  IL-12/IL-4 (B6): 2.9
  IL-12 levels, Total: 4332
IL-12 [1]; hour 0
  IL-12 levels, average: 5
  IL-12 levels, test 1: 5
  IL-12 levels, test 2: 5
IL-12 [1]; hour 2
  IL-12 levels, average: 20
  IL-12 levels, test 1: 40
  IL-12 levels, test 2: 0
IL-12 [1]; hour 6
  IL-12 levels, average: 2181.5
  IL-12 levels, test 1: 1993
  IL-12 levels, test 2: 2370
IL-12 [1]; hour 12
  IL-12 levels, average: 2071
  IL-12 levels, test 1: 1790
  IL-12 levels, test 2: 2352
IL-12 [1]; hour 24
  IL-12 levels, average: 54
  IL-12 levels, test 1: 30
  IL-12 levels, test 2: 78
IL-12 [1]; hour 48
  IL-12 levels, average: 0
  IL-12 levels, test 1: 0
  IL-12 levels, test 2: 0
IL-12 [1]; hour 72
  IL-12 levels, average: 0
  IL-12 levels, test 1: 0
  IL-12 levels, test 2: 0
IL-12 [2]
  IL-12/IL-4 (BALB/c): 21
  IL-12 levels, Total: 14462
IL-12 [2]; hour 0
  IL-12 levels, average: 5
  IL-12 levels, test 1: 5
  IL-12 levels, test 2: 5
IL-12 [2]; hour 2
  IL-12 levels, average: 119.5
  IL-12 levels, test 1: 0
  IL-12 levels, test 2: 239
IL-12 [2]; hour 6
  IL-12 levels, average: 6981
  IL-12 levels, test 1: 7064
  IL-12 levels, test 2: 6898
IL-12 [2]; hour 12
  IL-12 levels, average: 7001
  IL-12 levels, test 1: 7513
  IL-12 levels, test 2: 6489
IL-12 [2]; hour 24
  IL-12 levels, average: 306
  IL-12 levels, test 1: 299
  IL-12 levels, test 2: 313
IL-12 [2]; hour 48
  IL-12 levels, average: 0
  IL-12 levels, test 1: 0
  IL-12 levels, test 2: 0
IL-12 [2]; hour 72
  IL-12 levels, average: 48.5
  IL-12 levels, test 1: 0
  IL-12 levels, test 2: 97

## CCCCCCCCCCCCCCCCCCCCCCCCCC(=O)N[C@@H](CC[C@H]1O[C@H](CO)[C@H](O)[C@H](O)[C@H]1O)[C@H](O)[C@H](O)CCCCCCCCCCCCCC [CRONY, reference compound]
IL-4; hour 0
  IL-4 level, average: 27
  IL-4 level, test 1: 27
  IL-4 level, test 2: 27
IL-4; hour 2
  IL-4 level, average: 262.5
  IL-4 level, test 1: 264
  IL-4 level, test 2: 261
IL-4; hour 6
  IL-4 level, average: 87
  IL-4 level, test 1: 80
  IL-4 level, test 2: 94
IL-4; hour 12
  IL-4 level, average: 49
  IL-4 level, test 1: 45
  IL-4 level, test 2: 53
IL-4; hour 24
  IL-4 level, average: 47.5
  IL-4 level, test 1: 49
  IL-4 level, test 2: 46
IL-4; hour 48
  IL-4 level, average: 46.5
  IL-4 level, test 1: 45
  IL-4 level, test 2: 48
IL-4; hour 72
  IL-4 level, average: 67
  IL-4 level, test 1: 67
  IL-4 level, test 2: 67
IL-4
  IL-4 level, Total: 588
IFN-γ
  IFN-γ/IL-4 (BALB/c): 34
  IFN-γ levels, Total: 19938
IFN-γ; hour 0
  IFN-γ levels, average: 27
  IFN-γ levels, test 1: 27
  IFN-γ levels, test 2: 27
IFN-γ; hour 2
  IFN-γ levels, average: 150
  IFN-γ levels, test 1: 122
  IFN-γ levels, test 2: 178
IFN-γ; hour 6
  IFN-γ levels, average: 3075.5
  IFN-γ levels, test 1: 3114
  IFN-γ levels, test 2: 3037
IFN-γ; hour 12
  IFN-γ levels, average: 5611
  IFN-γ levels, test 1: 6314
  IFN-γ levels, test 2: 4908
IFN-γ; hour 24
  IFN-γ levels, average: 10680
  IFN-γ levels, test 1: 11900
  IFN-γ levels, test 2: 9460
IFN-γ; hour 48
  IFN-γ levels, average: 334
  IFN-γ levels, test 1: 320
  IFN-γ levels, test 2: 348
IFN-γ; hour 72
  IFN-γ levels, average: 59.5
  IFN-γ levels, test 1: 50
  IFN-γ levels, test 2: 69
IL-12 [1]
  IL-12/IL-4 (B6): 2
  IL-12 levels, Total: 1379
IL-12 [1]; hour 0
  IL-12 levels, average: 5
  IL-12 levels, test 1: 5
  IL-12 levels, test 2: 5
IL-12 [1]; hour 2
  IL-12 levels, average: 107
  IL-12 levels, test 1: 0
  IL-12 levels, test 2: 214
IL-12 [1]; hour 6
  IL-12 levels, average: 472.5
  IL-12 levels, test 1: 560
  IL-12 levels, test 2: 385
IL-12 [1]; hour 12
  IL-12 levels, average: 675.5
  IL-12 levels, test 1: 630
  IL-12 levels, test 2: 721
IL-12 [1]; hour 24
  IL-12 levels, average: 117.5
  IL-12 levels, test 1: 235
  IL-12 levels, test 2: 0
IL-12 [1]; hour 48
  IL-12 levels, average: 0
  IL-12 levels, test 1: 0
  IL-12 levels, test 2: 0
IL-12 [1]; hour 72
  IL-12 levels, average: 0
  IL-12 levels, test 1: 0
  IL-12 levels, test 2: 0
IL-12 [2]
  IL-12/IL-4 (BALB/c): 7
  IL-12 levels, Total: 4025
IL-12 [2]; hour 0
  IL-12 levels, average: 5
  IL-12 levels, test 1: 5
  IL-12 levels, test 2: 5
IL-12 [2]; hour 2
  IL-12 levels, average: 66
  IL-12 levels, test 1: 7
  IL-12 levels, test 2: 125
IL-12 [2]; hour 6
  IL-12 levels, average: 1525
  IL-12 levels, test 1: 1556
  IL-12 levels, test 2: 1494
IL-12 [2]; hour 12
  IL-12 levels, average: 1888.5
  IL-12 levels, test 1: 1717
  IL-12 levels, test 2: 2060
IL-12 [2]; hour 24
  IL-12 levels, average: 210
  IL-12 levels, test 1: 338
  IL-12 levels, test 2: 82
IL-12 [2]; hour 48
  IL-12 levels, average: 238
  IL-12 levels, test 1: 328
  IL-12 levels, test 2: 148
IL-12 [2]; hour 72
  IL-12 levels, average: 91.5
  IL-12 levels, test 1: 9
  IL-12 levels, test 2: 174
